From PMC11393731, “Sidechain structure–activity relationships of cyclobutane-based small molecule αvβ3 antagonists” (RSC Medicinal Chemistry, 2024)
Where two headings read alike, the source gives them in different places.

How the values were obtained:
αvβ3 = biological target: T1, αvβ3 (Homo sapiens, UniProt P05106+P06756); assay: αvβ3-mediated SK-Mel-2 melanoma cell adhesion to fibronectin; type: cell-based; conditions: for inhibition at 5 µM: read-out: Adhesion % inhibition @5 μM
T1 construct: αvβ3-expressing U87-MG glioblastoma and SK-Mel-2 melanoma cells; host or cells: SK-Mel-2 human melanoma cells
T1 sequence (P06756 31-889 limits assumed): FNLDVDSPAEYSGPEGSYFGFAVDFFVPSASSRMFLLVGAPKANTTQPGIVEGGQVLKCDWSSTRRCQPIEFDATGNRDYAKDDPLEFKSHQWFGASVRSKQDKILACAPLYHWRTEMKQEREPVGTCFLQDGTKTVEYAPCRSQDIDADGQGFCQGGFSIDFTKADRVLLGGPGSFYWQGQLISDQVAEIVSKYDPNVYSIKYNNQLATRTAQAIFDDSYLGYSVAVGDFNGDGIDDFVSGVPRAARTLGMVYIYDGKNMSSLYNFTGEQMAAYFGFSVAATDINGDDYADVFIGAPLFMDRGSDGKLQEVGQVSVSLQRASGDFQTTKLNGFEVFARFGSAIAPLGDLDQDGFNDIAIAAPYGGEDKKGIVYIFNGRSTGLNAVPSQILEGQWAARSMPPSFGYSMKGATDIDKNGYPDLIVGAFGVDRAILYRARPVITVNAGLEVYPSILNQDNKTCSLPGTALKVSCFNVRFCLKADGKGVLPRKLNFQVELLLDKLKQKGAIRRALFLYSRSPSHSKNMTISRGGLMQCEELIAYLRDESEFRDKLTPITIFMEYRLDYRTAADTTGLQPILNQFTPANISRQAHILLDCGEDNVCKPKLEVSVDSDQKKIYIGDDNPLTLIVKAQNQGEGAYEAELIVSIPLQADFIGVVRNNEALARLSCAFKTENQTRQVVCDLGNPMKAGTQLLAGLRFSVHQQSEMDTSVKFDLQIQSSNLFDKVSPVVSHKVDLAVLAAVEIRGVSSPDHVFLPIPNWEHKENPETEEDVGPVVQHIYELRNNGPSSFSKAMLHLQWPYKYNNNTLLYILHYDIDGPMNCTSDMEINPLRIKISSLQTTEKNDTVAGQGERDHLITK
T1 sequence (P06756 891-1048 partner limits assumed): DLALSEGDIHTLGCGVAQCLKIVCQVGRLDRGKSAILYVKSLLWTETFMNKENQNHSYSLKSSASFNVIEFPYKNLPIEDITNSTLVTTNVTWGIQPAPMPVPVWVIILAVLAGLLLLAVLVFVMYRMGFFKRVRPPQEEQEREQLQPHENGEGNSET
T1 sequence (P05106 27-788): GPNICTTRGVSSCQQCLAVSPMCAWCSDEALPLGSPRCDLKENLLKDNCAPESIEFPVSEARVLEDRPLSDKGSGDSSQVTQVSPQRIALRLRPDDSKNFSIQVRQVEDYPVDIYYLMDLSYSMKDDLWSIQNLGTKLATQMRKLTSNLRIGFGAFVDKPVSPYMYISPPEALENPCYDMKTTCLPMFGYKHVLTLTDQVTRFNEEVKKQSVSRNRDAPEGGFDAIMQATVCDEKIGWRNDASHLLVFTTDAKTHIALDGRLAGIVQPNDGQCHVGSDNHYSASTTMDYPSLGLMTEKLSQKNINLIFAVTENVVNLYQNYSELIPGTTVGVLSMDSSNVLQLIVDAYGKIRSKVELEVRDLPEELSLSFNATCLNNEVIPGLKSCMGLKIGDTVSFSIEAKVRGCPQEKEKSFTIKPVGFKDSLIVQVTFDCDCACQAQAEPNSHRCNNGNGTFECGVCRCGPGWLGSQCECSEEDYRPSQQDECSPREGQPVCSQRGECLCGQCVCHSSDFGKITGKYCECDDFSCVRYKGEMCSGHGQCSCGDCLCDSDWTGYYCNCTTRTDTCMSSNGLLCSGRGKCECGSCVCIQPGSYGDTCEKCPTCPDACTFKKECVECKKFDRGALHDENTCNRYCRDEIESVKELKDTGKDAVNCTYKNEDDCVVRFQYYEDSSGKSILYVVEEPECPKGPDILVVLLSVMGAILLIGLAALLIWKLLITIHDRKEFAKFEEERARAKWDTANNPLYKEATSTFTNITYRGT
Method: (§1) Cancer cell lines were obtained from ATCC (SK-Mel-2) or ECACC (U87-MG) and cultured in RPMI-1640 culture medium containing 10% foetal bovine serum (FBS), sodium pyruvate (1 mM) and L-glutamine (2 mM). All are human in origin. The αvβ3 adhesion assay was performed as previously described.[22,43]

[1] = system: U87-MG glioblastoma cells; assay: U87-MG 3-D spheroid invasion assay; type: cell-based; conditions: Homo sapiens, U-87 MG, mean ± SD
Method: Selected compounds were further investigated for effects on αvβ3-mediated cell invasion to model a key step in tumour progression and metastasis. U87-MG glioblastoma cells; a well-known αvβ3-expressing cell line model,[35,36] were used in a 3-D spheroid invasion model.[37]
as §1
Spheroids were formed from U87-MG cells (1000 cells per 30 μl hanging drop) according to the method of Nowicki and then embedded in collagen as follows.[37] Collagen I (1400 μL of 3 mg mL^−1) was added to a 1 mL Eppendorf tube on ice, supplemented with 0.2 mL of complete RPMI, and adjusted to pH 7.4 with 1 N NaOH. The collagen mixture was pipetted into each chamber of an 8-chamber cover glass and incubated at 37 °C for 45 minutes. Spheroids from hanging drops were transferred to each chamber of the cover glass, the medium allowed to evaporate, and then a 200 μL layer of collagen gel matrix was added to each chamber and incubated at 37 °C for 45 minutes. 200 μL of RPMI containing test compounds was added to each chamber and incubated at 37 °C, 5% CO2 for 7 days. The spheroids were observed frequently using inverted light microscopy at 10× objective lens, and images were captured and analysed using ImageJ.

[2] = Metabolic stability in mouse liver homogenates; type: in vitro ADME
Method: The methyl esters in 1 and 54 were cleaved to the corresponding free acids with half-lives of 5.4 minutes and 3.6 minutes respectively (ESI ^†). This was expected as small esters are frequently used to mask carboxylic acids with rapid ester hydrolysis releasing the active carboxylic acid in biological systems.
Compound metabolism in liver (ex vivo) was studied using (1 : 3) tissue homogenates of mouse liver. Mouse livers, supplied by the Institute of Cancer Therapeutics (ICT), under Home Office license guidelines (see below) were homogenized in phosphate-buffered saline. Liver homogenates were spiked with compound of interest (10 μM final concentration) and incubated at 37 °C. Reaction aliquots were removed over a 120 minute period, proteins precipitated using acetonitrile (1 : 3), and compound and metabolites analyzed by liquid chromatography-mass spectrometry (LC–MS) at the appropriate SIR (single ion recording) channel.
Detection was performed on a Waters Alliance system using a photodiode array detector, and a Waters Micromass ZQ quadrupole electrospray mass spectrometer connected in series. Compound and metabolites were separated on a RPB reversed-phase high-performance liquid chromatography column (HiChrom) using a mobile phase of acetonitrile/water/0.1% formic acid, with a gradient from 20% to 70% acetonitrile over 30 minutes at 1.1 mL min^−1.
Any metabolic intermediates were detected as singularly charged ions and identified by mass spectrometry.

in vitro [3] = type: cell-based; conditions: human
Text: (§2) Compounds were screened for non-specific cytotoxicity using the MTT assay before use in anti-αvβ3 functional assays. Unlike normal cells, cancer cell survival is often independent of αvβ3, and checking for cytotoxicity ensures inhibition of adhesion and invasion are truly from αvβ3 inhibition rather than cell death. […] In general, aminopyridines 53 and 54 were more cytotoxic than most THN-containing mimetics.
as §1
(§3) Table S1 Cytotoxicity of compounds on the cell lines used in the functional assays (measured by MTT assay). Cells (2000 cells/well for Sk-Mel-2; 1000 cells/well for U87MG) were incubated for 96 hours at 37 °C in a total volume of 200 µL/well (180 μL medium + 20 μL test compound solution). After 96 hours, the medium was replaced by fresh medium containing 0.5 mg/ml (end conc.) MTT per well, incubated for 4 h then the plate processed and read as described in Sutherland et al. 1 […]
(§4) 1. M. Sutherland, A. Gordon, F. O. Al-Shammari, A. Throup, A. Cilia La Corte, H. Philippou, S. D.
(§5) Shnyder, L. H. Patterson and H. M. Sheldrake, Cancers, 2023, 15, 4023.
(§6) (also on this page, place not known: al.1 Supplementary Information (SI) for RSC Medicinal Chemistry. This journal is © The Royal Society of Chemistry 2024)
(§7) (1 picture or pasted object on this page, not shown here)

in vitro [4] = type: cell-based; conditions: human; remark: listed apart in the source
Text: as §2, §1, §3, §4, §5, §6, §7

[5] = SK-Mel-2 adhesion to fibronectin, mean ± SD
[6] = read-out: Adhesion % inhibition @50 μM, SK-Mel-2 adhesion to fibronectin, mean ± SD
[7] = SK-MEL-2, read-out: Adhesion % inhibition @50 μM (initial trial experiment), initial trial experiment, not tested further at this concentration

SMILES	IC50 (αvβ3; [5]) [µM]	inhibition at 5 µM (αvβ3; [5]) [%]	inhibition at 10 µM [1] [%]	inhibition at 50 µM (αvβ3; [7]) [%]	IC50 at 96 h (in vitro [4]) [µM]	other results
COC(=O)[C@H](CNC(=O)[C@H]1C[C@@H](CCc2ccc3c(n2)NCCC3)C1)NS(=O)(=O)c1c(C)cc(C)cc1C [Compound 1]	0.34 ± 0.33	98.4 ± 1.9	60.2 ± 0.2	–	–	half-life at 10 μM ([2]; liver homogenate (1:3), 10 μM, 37 °C, read-out: half-life of methyl ester cleavage to free acid): 5.4 min
COC(=O)[C@H](CCNC(=O)[C@H]1C[C@@H](Cc2ccc3cccnc3n2)C1)NS(=O)(=O)c1ccccc1 [Compound 17]	–	–	23.3 ± 6.2	–	–	inhibition at 50 µM (αvβ3; [6]): 13 ± 25%
COC(=O)[C@H](CCNC(=O)[C@H]1C[C@@H](Cc2ccc3cccnc3n2)C1)NS(=O)(=O)c1c(C)cc(C)cc1C [Compound 18]	–	–	17.4 ± 3.7	–	–	IC50 at 96 h (in vitro [3]): 59.2 ± 16.9 µM
COC(=O)[C@H](CCNC(=O)[C@H]1C[C@@H](CCc2ccc3cccnc3n2)C1)NS(=O)(=O)c1ccccc1 [Compound 19]	–	54 ± 15	–	> 75	> 50	–
COC(=O)[C@H](CCNC(=O)[C@H]1C[C@@H](CCc2ccc3cccnc3n2)C1)NS(=O)(=O)c1c(C)cc(C)cc1C [Compound 20]	11.5 ± 5.3	43 ± 6	55.7 ± 1.2	> 75	–	–
COC(=O)[C@H](CCNC(=O)[C@H]1C[C@@H](Cc2ccc3c(n2)NCCC3)C1)NS(=O)(=O)c1ccccc1 [Compound 21]	29.4 ± 2.1	4 ± 9	49.5 ± 8.8	> 75	–	–
COC(=O)[C@H](CCNC(=O)[C@H]1C[C@@H](Cc2ccc3c(n2)NCCC3)C1)NS(=O)(=O)c1c(C)cc(C)cc1C [Compound 22]	–	83 ± 19	22.9 ± 5.7	> 75	> 50	IC50 at 96 h (in vitro [3]): 46.4 ± 3.5 µM
COC(=O)[C@H](CCNC(=O)[C@H]1C[C@@H](CCc2ccc3c(n2)NCCC3)C1)NS(=O)(=O)c1ccccc1 [Compound 23]	–	57 ± 13	–	> 75	> 50	–
COC(=O)[C@H](CCNC(=O)[C@H]1C[C@@H](CCc2ccc3c(n2)NCCC3)C1)NS(=O)(=O)c1c(C)cc(C)cc1C [Compound 24]	–	74 ± 10	35 ± 9	> 75	–	–
COC(=O)[C@H](CC(=O)N[C@H]1C[C@@H](CCc2ccc3cccnc3n2)C1)NS(=O)(=O)c1ccccc1 [Compound 28]	–	–	28.5 ± 4.4	–	–	inhibition at 50 µM (αvβ3; [6]): 42.4 ± 16.3%
COC(=O)[C@H](CC(=O)N[C@H]1C[C@@H](CCc2ccc3cccnc3n2)C1)NS(=O)(=O)c1c(C)cc(C)cc1C [Compound 29]	–	–	70.4 ± 1.4	–	–	inhibition at 50 µM (αvβ3; [6]): 56.6 ± 15.3%
O=C1C[C@H](NS(=O)(=O)c2ccccc2)C(=O)N1[C@H]1C[C@@H](CCc2ccc3cccnc3n2)C1 [Compound 30]	–	39.9 ± 23.8	22.6 ± 4	–	–	–
Cc1cc(C)c(S(=O)(=O)N[C@H]2CC(=O)N([C@H]3C[C@@H](CCc4ccc5cccnc5n4)C3)C2=O)c(C)c1 [Compound 31]	49.5 ± 29.8	13.8 ± 9.7	–	–	> 100	inhibition at 50 µM (αvβ3; [6]): 60.9 ± 23.8%
COC(=O)[C@H](CC(=O)N[C@H]1C[C@@H](CCc2ccc3c(n2)NCCC3)C1)NS(=O)(=O)c1ccccc1 [Compound 32]	–	45.4 ± 13.7	41.6 ± 4.7	–	–	–
COC(=O)[C@H](CC(=O)N[C@H]1C[C@@H](CCc2ccc3c(n2)NCCC3)C1)NS(=O)(=O)c1c(C)cc(C)cc1C [Compound 33]	1.2 ± 0.9	89.5 ± 8.7	33.7 ± 7.4	–	–	–
O=C1C[C@H](NS(=O)(=O)c2ccccc2)C(=O)N1[C@H]1C[C@@H](CCc2ccc3c(n2)NCCC3)C1 [Compound 34]	3.28 ± 0.01	60.2 ± 14.8	69.9 ± 1.8	–	–	inhibition at 50 µM (αvβ3; [6]): 73.9 ± 24.6%
Cc1cc(C)c(S(=O)(=O)N[C@H]2CC(=O)N([C@H]3C[C@@H](CCc4ccc5c(n4)NCCC5)C3)C2=O)c(C)c1 [Compound 35]	1.8 ± 1	–	–	–	15.2 ± 5.5	inhibition at 0.5 µM (αvβ3; 0.5 μM, SK-Mel-2 adhesion to fibronectin): 45.6%
CC(C)(C)OC(=O)C[C@H](NS(=O)(=O)c1ccccc1)C(=O)N[C@H]1C[C@@H](CCc2ccc3cccnc3n2)C1 [Compound 37]	13.6 ± 8.3	50 ± 17	–	> 75	> 50	–
O=C(O)C[C@H](NS(=O)(=O)c1ccccc1)C(=O)N[C@H]1C[C@@H](CCc2ccc3cccnc3n2)C1 [Compound 38]	–	–	–	–	> 50	inhibition at 50 µM (αvβ3; [6]): 43 ± 31%
CC(C)(C)OC(=O)C[C@H](NS(=O)(=O)c1ccccc1)C(=O)N[C@H]1C[C@@H](CCc2ccc3c(n2)NCCC3)C1 [Compound 39]	–	71 ± 16	–	> 75	35.2 ± 6.5	–
O=C(O)C[C@H](NS(=O)(=O)c1ccccc1)C(=O)N[C@H]1C[C@@H](CCc2ccc3c(n2)NCCC3)C1 [Compound 40]	–	67 ± 16	–	> 75	> 50	–
CNc1cccc(CC[C@H]2C[C@@H](C(=O)NC[C@H](NS(=O)(=O)c3ccccc3)C(=O)OC)C2)n1 [Compound 53]	1.8 ± 0.4	85 ± 1.4	62.9 ± 1.5	–	–	–
CNc1cccc(CC[C@H]2C[C@@H](C(=O)NC[C@H](NS(=O)(=O)c3c(C)cc(C)cc3C)C(=O)O)C2)n1 [Compound 55]	–	–	–	–	–	stability of metabolite in liver ([2]; mouse liver homogenate): appears to be stable
CC(C)[C@@H]1NC(=O)[C@@H](Cc2ccccc2)NC(=O)[C@H](CC(=O)O)NC(=O)CNC(=O)[C@H](CCCN=C(N)N)NC1=O [cRGDfV, reference compound]	–	–	–	–	–	IC50 at 96 h (in vitro [3]): 69.2 ± 25.5 µM
